Experimental data as given in ChEMBL document CHEMBL1201862, “PubChem BioAssay data set” (2004).
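Values below derive from 48-hour exposures of cells grown in 96-well plates, with endpoints linearly interpolated between the two concentrations bracketing the appropriate inhibition level. At the GI50, growth is halved.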 Active and inactive are the calls of the source. Cut-off read from the data, not from the text of the source: active = GI50 up to about 1.1 µM and inactive = higher.

What was measured:
Assay in all cases: NCI-60 cell line screen, 48 h
U-251 = tested on: U-251
CCRF-CEM = tested on: CCRF-CEM
K562 = tested on: K562
M14 = tested on: M14
SR = tested on: SR
NCI-H23 = tested on: NCI-H23
SK-OV-3 = tested on: SK-OV-3
Malme-3M = tested on: Malme-3M
SN12C = tested on: SN12C
OVCAR-8 = tested on: OVCAR-8
SK-MEL-28 = tested on: SK-MEL-28
HCT-116 = tested on: HCT-116
NCI/ADR-RES = tested on: NCI/ADR-RES
TK-10 = tested on: TK-10
SF-268 = tested on: SF-268
UACC-62 = tested on: UACC-62
MDA-N = tested on: MDA-N
HL-60 = tested on: HL-60
OVCAR-3 = tested on: OVCAR-3
RXF 393 = tested on: RXF 393

Compound	GI50 (U-251)	GI50 (CCRF-CEM)	GI50 (K562)	GI50 (M14)	GI50 (SR)	GI50 (NCI-H23)	GI50 (SK-OV-3)	GI50 (Malme-3M)	GI50 (SN12C)	GI50 (OVCAR-8)	GI50 (SK-MEL-28)	GI50 (HCT-116)	GI50 (NCI/ADR-RES)	GI50 (TK-10)	GI50 (SF-268)	GI50 (UACC-62)	GI50 (MDA-N)	GI50 (HL-60)	GI50 (OVCAR-3)	GI50 (RXF 393)
CCCCCCCCCOC(=O)c1cnc(Cl)cn1	19.7 µM (inactive)	39.9 µM (inactive)	36.8 µM (inactive)	18.4 µM (inactive)	49.1 µM (inactive)	18.2 µM (inactive)	34.9 µM (inactive)	19.6 µM (inactive)	18.3 µM (inactive)	33.4 µM (inactive)	24 µM (inactive)	17.7 µM (inactive)	22.2 µM (inactive)	20.5 µM (inactive)	21.2 µM (inactive)	18.1 µM (inactive)				
O=C(c1cccs1)N(C(=S)OCCOc1ccccc1)c1ccccc1	21.4 µM (inactive)	27.6 µM (inactive)	36.1 µM (inactive)	17 µM (inactive)		20.7 µM (inactive)	30.3 µM (inactive)	31.3 µM (inactive)	22.1 µM (inactive)	25.5 µM (inactive)	24.8 µM (inactive)	19.4 µM (inactive)	20.9 µM (inactive)	41 µM (inactive)	34.1 µM (inactive)	18.2 µM (inactive)	17.2 µM (inactive)	27.6 µM (inactive)	21 µM (inactive)	23.6 µM (inactive)
CN(C)c1ccc(/C=C2\Oc3cc(O)ccc3C2=O)cc1	57 µM (inactive)	69.5 µM (inactive)	37.8 µM (inactive)	75.7 µM (inactive)	52 µM (inactive)	> 100 µM (inactive)	> 100 µM (inactive)		62.4 µM (inactive)	> 100 µM (inactive)	> 100 µM (inactive)	> 100 µM (inactive)	83.4 µM (inactive)	> 100 µM (inactive)	> 100 µM (inactive)	> 100 µM (inactive)		40.5 µM (inactive)	38.7 µM (inactive)	> 100 µM (inactive)
COC(=O)n1c(=O)n(-c2ccccc2)c(=O)n1C(=O)Nc1ccccc1	> 100 µM (inactive)	96.2 µM (inactive)	51.3 µM (inactive)	> 100 µM (inactive)	> 100 µM (inactive)	> 100 µM (inactive)	> 100 µM (inactive)	> 100 µM (inactive)		> 100 µM (inactive)	> 100 µM (inactive)	> 100 µM (inactive)	> 100 µM (inactive)	> 100 µM (inactive)	> 100 µM (inactive)	> 100 µM (inactive)		> 100 µM (inactive)	> 100 µM (inactive)	> 100 µM (inactive)
CC1(C)OCC(COC(=O)NCn2cc(-c3ccccc3)nn2)O1 (stereo not drawn)	> 100 µM (inactive)	> 100 µM (inactive)	> 100 µM (inactive)	> 100 µM (inactive)	> 100 µM (inactive)	> 100 µM (inactive)		> 100 µM (inactive)	> 100 µM (inactive)	> 100 µM (inactive)	> 100 µM (inactive)	> 100 µM (inactive)	> 100 µM (inactive)	> 100 µM (inactive)	> 100 µM (inactive)			> 100 µM (inactive)		
COC(=O)C1=CSC2(S1)C(C(=O)OC)=CSc1c2ssc1=O (stereo not drawn)	1.54 µM (inactive)	0.762 µM (active)	1.95 µM (inactive)	2.5 µM (inactive)		2 µM (inactive)	9.42 µM (inactive)	2 µM (inactive)	2.12 µM (inactive)	2.34 µM (inactive)	1.97 µM (inactive)	1.61 µM (inactive)	2.87 µM (inactive)	2.42 µM (inactive)	2.69 µM (inactive)	1.96 µM (inactive)	2.13 µM (inactive)	1.6 µM (inactive)	1.81 µM (inactive)	1.92 µM (inactive)
c1ccc2c(c1)SP1Sc3ccccc3P21 (stereo not drawn)	> 100 µM (inactive)	> 87.1 µM (inactive)	> 87.3 µM (inactive)			> 100 µM (inactive)	> 100 µM (inactive)	> 100 µM (inactive)	63.4 µM (inactive)	> 89.3 µM (inactive)	> 90.4 µM (inactive)	> 80 µM (inactive)	> 100 µM (inactive)		> 95.3 µM (inactive)	> 85.1 µM (inactive)		> 72.8 µM (inactive)	> 100 µM (inactive)	52.7 µM (inactive)
C=C(C)[C@@H]1CCC2=C[C@H](OC2=O)[C@@]2(C)C[C@@H]2C(=O)/C=C(/C)C(=O)[C@H]1OC(C)=O	28.6 µM (inactive)	5.02 µM (inactive)		24.4 µM (inactive)		11.6 µM (inactive)	> 51.9 µM (inactive)	12.1 µM (inactive)	21.5 µM (inactive)	15.1 µM (inactive)	14.8 µM (inactive)	5.74 µM (inactive)	26.5 µM (inactive)	24.5 µM (inactive)	28.1 µM (inactive)	24.2 µM (inactive)	8.67 µM (inactive)	58.6 µM (inactive)	14.3 µM (inactive)	16 µM (inactive)
COC1C(N(C)C)=C(c2ccccc2)C(=O)N2CCc3ccccc3C12 (stereo not drawn)	> 100 µM (inactive)	> 100 µM (inactive)		> 100 µM (inactive)		> 100 µM (inactive)	> 100 µM (inactive)	> 100 µM (inactive)	> 100 µM (inactive)	> 100 µM (inactive)	> 100 µM (inactive)	> 100 µM (inactive)	> 100 µM (inactive)	> 100 µM (inactive)	> 100 µM (inactive)	> 100 µM (inactive)	> 100 µM (inactive)	> 100 µM (inactive)		> 100 µM (inactive)
Oc1cn(-c2ccc(Cl)cc2)nc1-c1n[nH]c(=S)n1-c1ccccc1	10.8 µM (inactive)		3.95 µM (inactive)	7 µM (inactive)	2.97 µM (inactive)	10.5 µM (inactive)	17.2 µM (inactive)	16.2 µM (inactive)	17.8 µM (inactive)	14.9 µM (inactive)	16.8 µM (inactive)	6.37 µM (inactive)	3.79 µM (inactive)	22 µM (inactive)	10.4 µM (inactive)	11.4 µM (inactive)		4.13 µM (inactive)	2.51 µM (inactive)	11.1 µM (inactive)
O=C1C(=Cc2cccc(O)c2)N=C(c2ccccc2)N1n1c(-c2ccccc2)nc2ccccc2c1=O	35.4 µM (inactive)	24.3 µM (inactive)	37.3 µM (inactive)	37.2 µM (inactive)	16.4 µM (inactive)	22.1 µM (inactive)	33.3 µM (inactive)	27.7 µM (inactive)	34.1 µM (inactive)	31.4 µM (inactive)	25.2 µM (inactive)	17.5 µM (inactive)	68.5 µM (inactive)	48.3 µM (inactive)	25 µM (inactive)	19.7 µM (inactive)		25.2 µM (inactive)	22.4 µM (inactive)	8.28 µM (inactive)
Cc1ccc(Nc2nc(C)c(C(=O)CC(=O)C(=O)Nc3c(C)cccc3C(C)(C)C)s2)cc1	71.8 µM (inactive)	> 100 µM (inactive)	> 100 µM (inactive)	> 100 µM (inactive)		> 100 µM (inactive)	> 100 µM (inactive)		> 100 µM (inactive)	79.3 µM (inactive)		> 100 µM (inactive)	> 100 µM (inactive)	> 100 µM (inactive)	> 100 µM (inactive)	> 100 µM (inactive)	> 100 µM (inactive)	> 100 µM (inactive)	> 100 µM (inactive)	> 100 µM (inactive)
COc1cccc(C2c3cc4c(cc3OC(O)C2C)OCO4)c1OC (stereo not drawn)	3.27 µM (inactive)	2.61 µM (inactive)	2.7 µM (inactive)	11.1 µM (inactive)	2.48 µM (inactive)	14.4 µM (inactive)		11 µM (inactive)	4.78 µM (inactive)	3.06 µM (inactive)	13.3 µM (inactive)	2.35 µM (inactive)		7.4 µM (inactive)	7.36 µM (inactive)	13.9 µM (inactive)	8.67 µM (inactive)	1.87 µM (inactive)	2.79 µM (inactive)	3.4 µM (inactive)
COc1cccc2c1C(=O)c1c(O)c3c(c(O)c1C2=O)CC(O)(C(C)=O)CC3OC1OC(COC(C)=O)C(OC(C)=O)C(OC(C)=O)C1OC(C)=O (stereo not drawn)	12.9 µM (inactive)	0.0276 µM (active)	18.5 µM (inactive)	43.8 µM (inactive)	5.38 µM (inactive)		32.7 µM (inactive)	35.6 µM (inactive)	48.3 µM (inactive)	11.5 µM (inactive)	85.5 µM (inactive)	55.8 µM (inactive)	> 100 µM (inactive)	22.9 µM (inactive)	11.4 µM (inactive)	33.2 µM (inactive)		53.8 µM (inactive)	14 µM (inactive)	0.269 µM (active)
C/C(=N\Nc1nc2ccccc2[nH]1)c1cnccn1	0.628 µM (active)	0.31 µM (active)	1.23 µM (inactive)	0.614 µM (active)		1.71 µM (inactive)	0.607 µM (active)	0.791 µM (active)	1.25 µM (inactive)	0.8 µM (active)	0.506 µM (active)	0.379 µM (active)	0.64 µM (active)	4.09 µM (inactive)	0.53 µM (active)	0.652 µM (active)	1.9 µM (inactive)	0.0589 µM (active)	0.296 µM (active)	0.392 µM (active)
COc1cc([C@@H]2c3cc4c(c(O)c3C[C@H]3COC(=O)[C@@H]32)OCO4)cc(OC)c1OC [BETA-PELTATIN A]		1.8 µM (inactive)	19.5 µM (inactive)	0.0241 µM (active)	109 µM (inactive)			0.0156 µM (active)	0.015 µM (active)	0.015 µM (active)	4.18 µM (inactive)	0.015 µM (active)		31.6 µM (inactive)	0.015 µM (active)		0.000284 µM (active)		0.015 µM (active)	
